Where “and” joins values, the source holds several entries; their conditions need not be identical. Equal entries are not always repeated.
Tested on: 233499-124-R-J3-PDC complex spheroid viability
Experiment: Anticancer human tumor 233499-124-R-J3-PDC patient-derived colon adenocarcinoma cell line growth inhibition [CLK]
Settings: for viability, T/C: stronger effect = lower value; active = viability on the fitted dose curve at most 10% of control; inactive = the rest
Outline: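 Multi-cell-type spheroids combined patient-derived tumor cells with HUVEC endothelial cells and human mesenchymal stem cells. Paired agents were dosed in half-log steps down from about clinical Cmax, or from 10 microM where Cmax was unknown.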

[1] = curve of first compound, second compound 0.0316 µM
[2] = curve of first compound, second compound 0.1 µM
[3] = curve of first compound, second compound 0.316 µM
[4] = curve of first compound, second compound 1 µM
[5] = curve of first compound, second compound 3.16 µM
[6] = curve of first compound, second compound 10 µM
[7] = second compound 0.0316 µM, first compound 0.0316 µM
[8] = second compound 0.0316 µM, first compound 0.1 µM
[9] = second compound 0.0316 µM, first compound 0.316 µM
[10] = second compound 0.0316 µM, first compound 1 µM
[11] = second compound 0.0316 µM, first compound 3.16 µM
[12] = second compound 0.0316 µM, first compound 10 µM
[13] = second compound 0.1 µM, first compound 0.0316 µM
[14] = second compound 0.1 µM, first compound 0.1 µM
[15] = second compound 0.1 µM, first compound 0.316 µM
[16] = second compound 0.1 µM, first compound 1 µM
[17] = second compound 0.1 µM, first compound 3.16 µM
[18] = second compound 0.1 µM, first compound 10 µM
[19] = second compound 0.316 µM, first compound 0.0316 µM
[20] = second compound 0.316 µM, first compound 0.1 µM
[21] = second compound 0.316 µM, first compound 0.316 µM
[22] = second compound 0.316 µM, first compound 1 µM
[23] = second compound 0.316 µM, first compound 3.16 µM
[24] = second compound 0.316 µM, first compound 10 µM
[25] = second compound 1 µM, first compound 0.0316 µM
[26] = second compound 1 µM, first compound 0.1 µM
[27] = second compound 1 µM, first compound 0.316 µM
[28] = second compound 1 µM, first compound 1 µM
[29] = second compound 1 µM, first compound 3.16 µM
[30] = second compound 1 µM, first compound 10 µM
[31] = second compound 3.16 µM, first compound 0.0316 µM
[32] = second compound 3.16 µM, first compound 0.1 µM
[33] = second compound 3.16 µM, first compound 0.316 µM
[34] = second compound 3.16 µM, first compound 1 µM
[35] = second compound 3.16 µM, first compound 3.16 µM
[36] = second compound 3.16 µM, first compound 10 µM
[37] = second compound 10 µM, first compound 0.0316 µM
[38] = second compound 10 µM, first compound 0.1 µM
[39] = second compound 10 µM, first compound 0.316 µM
[40] = second compound 10 µM, first compound 1 µM
[41] = second compound 10 µM, first compound 3.16 µM
[42] = second compound 10 µM, first compound 10 µM
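Note: spheroids exposed to the drug combinations for seven days.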
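Throughout, for viability, T/C: percent viability relative to DMSO vehicle control wells taken as 100%.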

COc1cccc2c1C(=O)c1c(O)c3c(c(O)c1C2=O)CC(O)(C(=O)CO)CC3OC1CC(N)C(O)C(C)O1 (stereo not given) + CN1CCN(c2cc(C(=O)Nc3cc4cc(-c5cnn(C)c5)ccc4cn3)ccn2)CC1
1780 nM: IC50 [2]
inactive: viability, T/C [7] 80.4% | viability, T/C [8] 110% | viability, T/C [9] 106% | viability, T/C [10] 80.9% | viability, T/C [11] 43.2% | viability, T/C [12] 10.8% | viability, T/C [13] 98% | viability, T/C [14] 110% | viability, T/C [15] 100% | viability, T/C [16] 68.5% | viability, T/C [17] 30.7% | viability, T/C [19] 84.7% | viability, T/C [20] 97.6% | viability, T/C [21] 66.5% | viability, T/C [22] 61.9% | viability, T/C [23] 44.4%
1940 nM: IC50 [3]
2550 nM: IC50 [1]
< 31.6 nM: IC50 [4] | IC50 [5] | IC50 [6]
active: viability, T/C [18] 5.13% | viability, T/C [24] 2.79% | viability, T/C [25] 0.46% | viability, T/C [26] 0.59% | viability, T/C [27] 10.8% | viability, T/C [28] 0.33% | viability, T/C [29] 5.03% | viability, T/C [30] 0.81% | viability, T/C [31] 0.55% | viability, T/C [32] 0.57% | viability, T/C [33] 0.48% | viability, T/C [34] 0.43% | viability, T/C [35] 0.53% | viability, T/C [36] 0.67% | viability, T/C [37] 0.35% | viability, T/C [38] 0.39% | viability, T/C [39] 0.38% | viability, T/C [40] 0.34% | viability, T/C [41] 0.3% | viability, T/C [42] 0.24%

Nc1ccn(C2OC(CO)C(O)C2(F)F)c(=O)n1 (stereo not given) + CN1CCN(c2cc(C(=O)Nc3cc4cc(-c5cnn(C)c5)ccc4cn3)ccn2)CC1
313 nM: IC50 [1]
217 nM: IC50 [2]
168 nM: IC50 [3]
inactive: viability, T/C [7] 80% | viability, T/C [8] 95.4% | viability, T/C [9] 49.6% | viability, T/C [10] 34.2% | viability, T/C [11] 37% | viability, T/C [12] 27.2% | viability, T/C [13] 101% | viability, T/C [14] 92.1% | viability, T/C [15] 29.6% | viability, T/C [16] 19.2% | viability, T/C [17] 23.2% | viability, T/C [18] 21.4% | viability, T/C [19] 101% | viability, T/C [20] 71% | viability, T/C [21] 24.7%
active: viability, T/C [22] 7.57% | viability, T/C [23] 12.1% | viability, T/C [24] 5.63% | viability, T/C [25] 1.31% | viability, T/C [26] 0.86% | viability, T/C [27] 0.41% | viability, T/C [28] 1.47% | viability, T/C [29] 0.37% | viability, T/C [30] 0.46% | viability, T/C [31] 0.7% | viability, T/C [32] 0.69% | viability, T/C [33] 0.53% | viability, T/C [34] 0.46% | viability, T/C [35] 0.48% | viability, T/C [36] 0.62% | viability, T/C [37] 0.45% | viability, T/C [38] 0.5% | viability, T/C [39] 0.68% | viability, T/C [40] 0.58% | viability, T/C [41] 0.44% | viability, T/C [42] 0.38%
< 31.6 nM: IC50 [4] | IC50 [5] | IC50 [6]

C=C(F)C(=O)N1CCN(c2nc(OCC3CCCN3C)nc3c2CCN(c2cccc4cccc(Cl)c24)C3)CC1CC#N (stereo not given)
inactive: viability, T/C (compound 0.0316 µM) 99.9% and 96.2% | viability, T/C (compound 0.1 µM) 86.9% and 90.1% | viability, T/C (compound 0.316 µM) 97% and 99.1% | viability, T/C (compound 1 µM) 95.4% and 97.3% | viability, T/C (compound 3.16 µM) 94.6% and 89.2% | viability, T/C (compound 10 µM) 38% and 87.9%
7840 nM and > 10000 nM: IC50 (curve of compound)

Nc1ccccc1NC(=O)c1ccc(CNC(=O)OCc2cccnc2)cc1
inactive: viability, T/C (compound 0.0316 µM) 91.4% and 90.3% | viability, T/C (compound 0.1 µM) 87.2% and 89.8% | viability, T/C (compound 0.316 µM) 74.4% and 96.3% | viability, T/C (compound 1 µM) 78% and 89.7% | viability, T/C (compound 3.16 µM) 32.4% and 33.4%
2000 nM and 2250 nM: IC50 (curve of compound)
active: viability, T/C (compound 10 µM) 0.79% and 1.47%

NC(=O)C(=Cn1cnc(-c2cc(C(F)(F)F)cc(C(F)(F)F)c2)n1)c1cncnc1
inactive: viability, T/C (compound 0.00949 µM) 79.8% and 85.7% | viability, T/C (compound 0.03 µM) 92.3% and 86.1% | viability, T/C (compound 0.0949 µM) 94.4% and 92.1% | viability, T/C (compound 0.3 µM) 70.9% and 61.6% | viability, T/C (compound 0.949 µM) 57.1% and 48%
19.2% and 7.79%: viability, T/C (compound 3 µM)
1120 nM and 750 nM: IC50 (curve of compound)

CC1(C)CCC(CN2CCN(c3ccc(C(=O)NS(=O)(=O)c4ccc(NCC5CCOCC5)c([N+](=O)[O-])c4)c(Oc4cnc5[nH]ccc5c4)c3)CC2)=C(c2ccc(Cl)cc2)C1
6150 nM and 6780 nM: IC50 (curve of compound)
inactive: viability, T/C (compound 0.0316 µM) 99.6% and 96.4% | viability, T/C (compound 0.1 µM) 98.9% and 93.4% | viability, T/C (compound 0.316 µM) 99.4% and 96.6% | viability, T/C (compound 1 µM) 95.5% and 98.7% | viability, T/C (compound 3.16 µM) 111% and 105% | viability, T/C (compound 10 µM) 12.8% and 25.5%

Nc1ccccc1NC(=O)c1ccc(CNC(=O)OCc2cccnc2)cc1 + CNC(=O)c1ccc(Nc2nc(OC3CCCC3)c3c(-c4ccc5nc(C)oc5c4)c[nH]c3n2)c(OC)c1
233 nM: IC50 [3]
199 nM: IC50 [4]
1830 nM: IC50 [1]
443 nM: IC50 [5]
157 nM: IC50 [6]
active: viability, T/C [12] 0.94% | viability, T/C [17] 9.08% | viability, T/C [18] 0.5% | viability, T/C [23] 4.82% | viability, T/C [24] 0.23% | viability, T/C [29] 2.15% | viability, T/C [30] 0.09% | viability, T/C [34] 8.74% | viability, T/C [35] 1.22% | viability, T/C [36] 0.1% | viability, T/C [41] 1.09% | viability, T/C [42] 0.15%
731 nM: IC50 [2]
inactive: viability, T/C [7] 96.7% | viability, T/C [8] 86% | viability, T/C [9] 91.8% | viability, T/C [10] 79.7% | viability, T/C [11] 23.1% | viability, T/C [13] 64.9% | viability, T/C [14] 67.4% | viability, T/C [15] 63.6% | viability, T/C [16] 44.8% | viability, T/C [19] 77% | viability, T/C [20] 66.7% | viability, T/C [21] 43.6% | viability, T/C [22] 20% | viability, T/C [25] 74.6% | viability, T/C [26] 70.1% | viability, T/C [27] 35.7% | viability, T/C [28] 15.2% | viability, T/C [31] 71.1% | viability, T/C [32] 65.6% | viability, T/C [33] 67.2% | viability, T/C [37] 70.8% | viability, T/C [38] 50.4% | viability, T/C [39] 44.5% | viability, T/C [40] 20.6%

CCc1c2c(nc3ccc(O)cc13)-c1cc3c(c(=O)n1C2)COC(=O)[C@]3(O)CC
inactive: viability, T/C (compound 0.00316 µM) 88.5% and 83.9% | viability, T/C (compound 0.01 µM) 62.1% and 59.6% | viability, T/C (compound 0.0316 µM) 87.1% and 45.6% | viability, T/C (compound 0.1 µM) 92.3% and 52.8% | viability, T/C (compound 0.316 µM) 80.8% and 49.8% | viability, T/C (compound 1 µM) 42% and 37.8%

— PubChem BioAssay AID2060613 (Molecular Pharmacology Branch, DTP, NCI, 2025)
